Experimental data as given in US10857128B2, “Methods and compositions for treating inflammatory diseases” (Helmholtz Zentrum München Deutsches Forschungszentrum für …, priority 2017, dated 2020).
Where two headings read alike, the source gives them in different places.

Experiments:
Assay type in all cases: cell-based
[1] = tested on: costimulatory molecules of LPS-stimulated human dendritic cells; experiment: Costimulatory molecules on LPS-stimulated human monocyte-derived dendritic cells (flow cytometry); conditions: Dendritic cell, 24 h, LPS 0.1 μg/ml, D-amino acid 10 μM, mean ± SD of three experiments, relative to LPS-induced expression
Procedure: Generation of human monocyte-derived dendritic cells. Peripheral venous blood was obtained from healthy volunteers aged between 20 and 50 years after informed consent. Individuals with allergic disease, acute infection or taking any medication 20 days prior to blood sampling or any history of smoking (personal interview) were excluded prior to blood sampling. All experiments were conducted according to the principles expressed in the Declaration of Helsinki.
(§1) Peripheral blood mononuclear cells (PBMC) were isolated from heparinized whole blood by density gradient centrifugation (2000 rpm, 22° C., 20 min) (Biocoll, Biochrom AG, Berlin, Germany). […] Purity and viability of DCs was assessed by flow cytometry (FIG. 9A-C).
Costimulatory molecules on human DCs. The following primary monoclonal antibodies were used: CD83 fluorescein isothiocyanate (FITC); CD1a phycoerythrin (PE); CD86-FITC; CD80-PE; CD14 allophycocyanine (APC); CD40-APC; CD3-peridinin chlorophyll protein (PerCP); HLA-DR-PerCP; mouse immunoglobulins G1 (IgG1) mouse immunoglobulins G1 (IgG1) κ were used as isotype controls using the corresponding fluorochromes (all purchased from BD Biosciences, Heidelberg, Germany). To account for donor dependent variability of DC surface markers, all data were normalized to the expression induced by LPS which was set to 100% after subtraction of background values (FACS Canto, FACS DIVA software, Version 5.0.3, BD Biosciences, Heidelberg, Germany). Murine DC subsets and CD4^+ T cells. Single cell suspensions of splenocytes were obtained by filtering spleens through a 70 μm strainer. Samples were stained with CD3-PB (1:200, Biolegend, San Diego, USA), CD4-APC-H7 (BD, 1:400), CD11c-APC-Cy7 (1:100), Mhc-II-Percp-Cy5 (1:100), CD11b-FITC (1:100), CD80-AF647, CD40-APC (1:100). For intracellular cytokines, total spleen cells were stimulated with anti-CD3 (4 μg/mL, BD Bioscience, Heidelberg, Germany) and anti-CD28 (30 ng/mL, BD Bioscience, Heidelberg, Germany) for 16 h. 1×10^6 of total lung cells were stimulated for 16 h with MACSiBead particles coated with anti-CD3 and anti-CD28 using the T cell activation/expansion kit (Miltenyi Biotec, Bergisch Gladbach, Germany) in TexMACS medium (Miltenyi Biotec) according to the manufactures recommendations. Prior to staining, cells were treated with monensin (0.7 μL/mL, BD Golgi Stop, BD Bioscience, Heidelberg, Germany) for 6 h at 37° C. and intracellularly stained for II-4-PE (1:100, eBioscience, Vienna, Austria according to the manufacturer's protocols. Intracellular staining for Foxp3 was performed by using the Foxp3/Transcription Factor Staining buffer set (eBiosciences, Vienna, Austria) according to the manufacturer's recommendations.
Bioassays for screening for immune modulatory activity in probiotic supernatants. Two biological assays based on down-modulation of costimulatory molecules on human DCs, and of CCL17-secretion by a human Hodgkin lymphoma T cell line (KM-H2) were set up. Human immature DCs were matured with 0.1 μg/mL lipopolysaccharide (LPS) from E. coli (Sigma-Aldrich, St. Louis, USA) in the presence or absence of 200 μL bacteria free supernatants for 24 h followed by flow cytometric analysis of costimulatory molecules.

human LPS treated DCs = experiment: Cytokine secretion of human DCs (multiplex assay); conditions: for IFN-g / IL-5 / IL-10 / IL-12: 200 μl supernatant or amino acid 10 μM, 14 h
Procedure: as §1
[…] For probiotic supernatants, blank CDM1 was used as medium control. […] IL-5, IFN-gamma, IL-12, and IL-10, were quantified by a multiplex assay (Milliplex Human Cytokine Immunoassay, Millipore GMbH Schalbach, Germany) as described by the manufacturer.

[2] = tested on: CCL17 secretion of human Hodgkin lymphoma KM-H2 cells; experiment: CCL17 secretion bioassay with KM-H2 cells (ELISA); conditions: different concentrations, 24 h
Procedure: Human T cell line KM-H2. The human Hodgkin lymphoma T cell line (KM-H2) was purchased from the Leibniz Institute DSMZ-German Collection of Microorganisms and Cell Cultures, Braunschweig, Germany. 3-5×10^6 KM-H2 cells were grown in 4 mL RPMI 1640 per well in 6-well-plates (Nunc, Wiesbaden, Germany). All eukaryotic cells were cultured in 5% CO2 at 37° C. (HeraCell 240 and Heraeus BDD 6220, Thermo Fisher Scientific, Waltham, USA). Viability of cells after treatment with bacterial supernatants was assessed by trypan blue, 7-AAD and CellTiter-Blue® staining. (FIG. 9A-C)
Quantification of CCL17 and cytokines in eukaryotic cell culture supernatants. CCL17 was quantified in cell culture supernatants of KM-H2 cells using ELISA reagent Quantikine CCL17/TARC, (R&D Systems, Minneapolis, USA) according to the manufacturer's instructions (ELISA reader MRXII, Thermo Fisher Scientifc, Waltham, USA).
Bioassays for screening for immune modulatory activity in probiotic supernatants. Two biological assays based on down-modulation of costimulatory molecules on human DCs, and of CCL17-secretion by a human Hodgkin lymphoma T cell line (KM-H2) were set up. […]
Similarly, 200 μL supernatants were added to 3-5×10^6 KM-H2 cells for 24 h. Supernatants were collected from KM-H2 by centrifugation and stored at −80° C. until quantification of CCL17. […]

[3] = read-out: Percentage of CD40 expressing mature DCs
[4] = read-out: Percentage of CD80 expressing mature DCs
[5] = read-out: Percentage of CD83 expressing mature DCs
[6] = read-out: Percentage of CD86 expressing mature DCs
[7] = read-out: Percentage of HLA-DR expressing mature DCs

SMILES: C[C@@H](N)C(=O)O [D-alanine]
- activity at 10 µM [1, 3]: 102 ± 3.4%
- activity at 10 µM [1, 4]: 98.3 ± 2.6%
- activity at 10 µM [1, 5]: 97.7 ± 2.3%
- activity at 10 µM [1, 6]: 99.2 ± 2.1%
- activity at 10 µM [1, 7]: 98.1 ± 1.1%

SMILES: N[C@@H](Cc1c[nH]c2ccccc12)C(=O)O [L-Trp, L-Tryptophan]
- Ratio IL-5/IFN-g (human LPS treated DCs; with LPS 0.1 μg/ml): 0.030
- Ratio IL-10/IL-12 (human LPS treated DCs; with LPS 0.1 μg/ml): 0.002
- IFN-g (human LPS treated DCs; with LPS 0.1 μg/ml): 2031.50 pg/mL
- IL-5 (human LPS treated DCs; with LPS 0.1 μg/ml): 61.40 pg/mL
- IL-10 (human LPS treated DCs; with LPS 0.1 μg/ml): 4.90 pg/mL
- IL-12 (human LPS treated DCs; with LPS 0.1 μg/ml): 1993.00 pg/mL
- Ratio IL-5/IFN-g (human LPS treated DCs; without LPS): 0.267
- Ratio IL-10/IL-12 (human LPS treated DCs; without LPS): 0.065
- IFN-g (human LPS treated DCs; without LPS): 45.00 pg/mL
- IL-5 (human LPS treated DCs; without LPS): 12.00 pg/mL
- IL-10 (human LPS treated DCs; without LPS): 5.70 pg/mL
- IL-12 (human LPS treated DCs; without LPS): 88.30 pg/mL
- immune activity of synthetic tryptophan isomers in the CCL17 bioassay [2]: inactive

SMILES: CC[C@@H](C)[C@@H](N)C(=O)O [D-isoleucine]
- activity at 10 µM [1, 3]: 100 ± 2.4%
- activity at 10 µM [1, 4]: 98.2 ± 1.5%
- activity at 10 µM [1, 5]: 100 ± 1.1%
- activity at 10 µM [1, 6]: 99.8 ± 1.2%
- activity at 10 µM [1, 7]: 100.1 ± 0.3%

SMILES: N[C@H](CO)C(=O)O [D-serine]
- activity at 10 µM [1, 3]: 101 ± 1.1%
- activity at 10 µM [1, 4]: 100 ± 2.8%
- activity at 10 µM [1, 5]: 100.8 ± 0.3%
- activity at 10 µM [1, 6]: 101 ± 2.8%
- activity at 10 µM [1, 7]: 98.6 ± 0.6%

SMILES: N[C@H](Cc1ccccc1)C(=O)O [D-phenylalanine]
- activity at 10 µM [1, 3]: 100 ± 2.7%
- activity at 10 µM [1, 4]: 92.4 ± 3.5%
- activity at 10 µM [1, 5]: 99.6 ± 2%
- activity at 10 µM [1, 6]: 99.2 ± 3.3%
- activity at 10 µM [1, 7]: 98 ± 3.2%

SMILES: C[C@H](O)[C@@H](N)C(=O)O [D-threonine]
- activity at 10 µM [1, 3]: 101 ± 1.5%
- activity at 10 µM [1, 4]: 100.8 ± 0.4%
- activity at 10 µM [1, 5]: 102.6 ± 0.5%
- activity at 10 µM [1, 6]: 102.1 ± 0.7%
- activity at 10 µM [1, 7]: 97.1 ± 3.9%

SMILES: O=C(O)[C@H]1CCCN1 [D-proline]
- activity at 10 µM [1, 3]: 99.2 ± 1.3%
- activity at 10 µM [1, 4]: 100.3 ± 0.1%
- activity at 10 µM [1, 5]: 100.9 ± 0.4%
- activity at 10 µM [1, 6]: 101 ± 1.9%
- activity at 10 µM [1, 7]: 98.4 ± 2.6%
- Ratio IL-5/IFN-g (human LPS treated DCs; with LPS 0.1 μg/ml): 0.030
- Ratio IL-10/IL-12 (human LPS treated DCs; with LPS 0.1 μg/ml): 0.002
- IFN-g (human LPS treated DCs; with LPS 0.1 μg/ml): 2295.40 pg/mL
- IL-5 (human LPS treated DCs; with LPS 0.1 μg/ml): 69.10 pg/mL
- IL-10 (human LPS treated DCs; with LPS 0.1 μg/ml): 4.00 pg/mL
- IL-12 (human LPS treated DCs; with LPS 0.1 μg/ml): 1911.90 pg/mL
- Ratio IL-5/IFN-g (human LPS treated DCs; without LPS): 0.171
- Ratio IL-10/IL-12 (human LPS treated DCs; without LPS): 0.065
- IFN-g (human LPS treated DCs; without LPS): 92.60 pg/mL
- IL-5 (human LPS treated DCs; without LPS): 15.80 pg/mL
- IL-10 (human LPS treated DCs; without LPS): 5.90 pg/mL
- IL-12 (human LPS treated DCs; without LPS): 90.60 pg/mL

SMILES: O=C(O)[C@@H]1CCCN1 [L-Pro, L-Prolin]
- Ratio IL-5/IFN-g (human LPS treated DCs; with LPS 0.1 μg/ml): 0.027
- Ratio IL-10/IL-12 (human LPS treated DCs; with LPS 0.1 μg/ml): 0.003
- IFN-g (human LPS treated DCs; with LPS 0.1 μg/ml): 2133.90 pg/mL
- IL-5 (human LPS treated DCs; with LPS 0.1 μg/ml): 57.70 pg/mL
- IL-10 (human LPS treated DCs; with LPS 0.1 μg/ml): 6.00 pg/mL
- IL-12 (human LPS treated DCs; with LPS 0.1 μg/ml): 1938.00 pg/mL
- Ratio IL-5/IFN-g (human LPS treated DCs; without LPS): 0.166
- IFN-g (human LPS treated DCs; without LPS): 88.90 pg/mL
- IL-5 (human LPS treated DCs; without LPS): 14.80 pg/mL
- IL-12 (human LPS treated DCs; without LPS): 99.80 pg/mL

SMILES: CC(C)[C@@H](N)C(=O)O [D-valine]
- activity at 10 µM [1, 3]: 101 ± 2.4%
- activity at 10 µM [1, 4]: 99.6 ± 2%
- activity at 10 µM [1, 5]: 102 ± 1.2%
- activity at 10 µM [1, 6]: 101.8 ± 0.9%
- activity at 10 µM [1, 7]: 100 ± 1%

SMILES: CC(C)C[C@@H](N)C(=O)O [D-leucine]
- activity at 10 µM [1, 3]: 100 ± 1.7%
- activity at 10 µM [1, 4]: 100 ± 1.6%
- activity at 10 µM [1, 5]: 97.1 ± 2.4%
- activity at 10 µM [1, 6]: 102 ± 1.3%
- activity at 10 µM [1, 7]: 98 ± 10%

SMILES: N[C@H](Cc1c[nH]cn1)C(=O)O [D-histidine]
- activity at 10 µM [1, 3]: 101 ± 3.2%
- activity at 10 µM [1, 4]: 102 ± 0.9%
- activity at 10 µM [1, 5]: 103.1 ± 0.3%
- activity at 10 µM [1, 6]: 102.5 ± 0.4%
- activity at 10 µM [1, 7]: 99.9 ± 0.9%

SMILES: CSCC[C@@H](N)C(=O)O [D-methionine]
- activity at 10 µM [1, 3]: 102.7 ± 0.6%
- activity at 10 µM [1, 4]: 100.4 ± 0.2%
- activity at 10 µM [1, 5]: 102 ± 2.2%
- activity at 10 µM [1, 6]: 102 ± 2.5%
- activity at 10 µM [1, 7]: 98.9 ± 2%

SMILES: N[C@H](Cc1ccc(O)cc1)C(=O)O [D-tyrosin]
- activity at 10 µM [1, 3]: 100 ± 1.3%
- activity at 10 µM [1, 4]: 101.6 ± 0.4%
- activity at 10 µM [1, 5]: 101.6 ± 0.6%
- activity at 10 µM [1, 6]: 102.2 ± 0.9%
- activity at 10 µM [1, 7]: 98.4 ± 2.4%
